Data published in patent US6734187B1, “Purine derivatives and medicaments comprising the same as active ingredient” (Mitsubishi Chemical Corporation, priority 1997, dated 2004).

What was measured:
[1] = molecular target: Type IV Phosphodiesterase (PDE IV); test: Effect on enzymatic activity of type IV phosphodiesterase (PDE IV); format: biochemical; settings: crude enzyme from cytoplasmic fraction of human monocyte-like cell strain U937; 3H-cAMP substrate, 30° C., 15 minutes; read-out: PDE IV Inhibitory Activity: IC50
Description: PDE IV inhibitory activity of the compounds of the present invention was examined. […] Adv.
Effect on Enzymatic Activity of Type IV Phosphodiesterase (PDE IV)
After a test compound was added, the reaction mixture was incubated at 30° C. for 15 minutes, and then added with the substrate.

Structure (SMILES) | melting point | IC50 [1]
COc1ccc(Cn2cnc3c(N(C)C)nc(OCCCc4ccncc4)nc32)cc1OC1CCCC1 [compound 82] | 78 to 80 °C | 0.82 nM
COc1ccc(Cn2c(C)nc3c(C)nc(OCc4cc(C)nn4C)nc32)cc1OC1CCCC1 [compound 112] | 112 to 123 °C | 0.22 nM
COc1ccc(Cn2cnc3cnc(NCc4cccs4)nc32)cc1OC1CCCC1 [compound 41] | 141 to 142 °C | 0.47 nM
CCNc1nc(Cl)nc2c1ncn2Cc1ccc(OC)c(OC2CCCC2)c1 [compound 134] | 129 to 131 °C | 41 nM
CCNc1nc(OCCCc2cc[n+]([O-])cc2)nc2c1ncn2Cc1ccc(OC)c(OC2CCCC2)c1 [compound 122] | 85 to 88 °C | 15 nM
COc1ccc(Cn2cnc3cnc(OCCCc4ccncc4)nc32)cc1OC1CCOC1 (centres unmarked) [compound 55] | 128 to 130 °C | 4.5 nM
COc1ccc(Cn2c(C)nc3cnc(NCc4ccc(OCC(F)(F)F)nc4)nc32)cc1OC1CCCC1 [compound 77] | 125 to 127 °C | 0.83 nM
CCNc1nc(OCc2cccnn2)nc2c1ncn2Cc1ccc(OC)c(OC2CCCC2)c1 [compound 96, 9-[(3-cyclopentyloxy-4-methoxy)benzyl]-6-ethylamino-2-[(3-pyridazinyl)methyloxy]purine] | 121 to 122 °C | 3.8 nM
COc1ccc(Cn2cnc3c(C)nc(NCc4ccncc4)nc32)cc1OC1CCCC1 [compound 84] | 137 to 138 °C | 1.9 nM
COc1ccc(Cn2cnc3c(N(C)C)nc(NCc4cccnc4)nc32)cc1OC1CCCC1 [compound 104] | 112 to 114 °C | 1.1 nM
COc1ccc(Cn2c(C)nc3c(C)nc(OCc4ccncc4)nc32)cc1OC1CCCC1 [compound 95] | 125 to 126 °C | 1.7 nM
COc1ccc(Cn2c(C)nc3cnc(OCc4cccnc4)nc32)cc1OC1CCCC1 [compound 36] | – | 2.6 nM

More lines, in order of falling IC50 [1], values ahead:

melting point | IC50 [1] | Structure (SMILES)
143 to 145 °C | 64 nM | COc1ccc(Cn2cnc3ncnc(OCc4cccnc4)c32)cc1OC1CCCC1 [compound 137]
134 to 135 °C | 54 nM | COc1ccc(Cn2cnc3ncnc(Oc4cccnc4)c32)cc1OC1CCCC1 [compound 139]
164 to 166 °C | 24 nM | COc1ccc(Cn2c(C)nc3c(C)nc(NCc4cccnn4)nc32)cc1OC1CCCC1 [compound 113]
157 to 158 °C | 15 nM | COc1ccc(Cn2c(C)nc3c(C)nc(OCc4cc[n+]([O-])cc4)nc32)cc1OC1CCCC1 [compound 102]
– | 8.9 nM | COc1ccc(Cn2cnc3c(OCc4cccnc4)ncnc32)cc1OC1CCCC1 [compound 2]
152 to 153 °C | 1.4 nM | COc1ccc(Cn2cnc3c(N)nc(OCCCc4ccncc4)nc32)cc1OC1CCCC1 [compound 66]
115 to 117 °C | 1.3 nM | COc1ccc(Cn2c(C)nc3cnc(OCCCc4ccncc4)nc32)cc1OC1CCCC1 [compound 56]
– | 1 nM | COc1ccc(Cn2c(C)nc3cnc(NCc4cccnc4)nc32)cc1OC1CCCC1 [compound 37]
138 to 140 °C | 0.75 nM | CNc1nc(OCCCc2ccncc2)nc2c1ncn2Cc1ccc(OC)c(OC2CCCC2)c1 [compound 72]
127 to 128 °C | 0.69 nM | CCNc1nc(OCCCc2ccncc2)nc2c1ncn2Cc1ccc(OC)c(OC2CCCC2)c1 [compound 83]
116 to 117 °C | 0.64 nM | COc1ccc(Cn2c(C)nc3c(C)nc(SCc4cccnc4)nc32)cc1OC1CCCC1 [compound 119]
130 to 131 °C | 0.44 nM | CCCNc1nc(OCCCc2ccncc2)nc2c1ncn2Cc1ccc(OC)c(OC2CCCC2)c1 [compound 93]
92 to 93 °C | 0.2 nM | COc1ccc(Cn2cnc3c(N(C)C)nc(OCc4ccoc4)nc32)cc1OC1CCCC1 [compound 88]
